Assay results taken from patent publication US4276297A, “Pyridylaminotriazole therapeutic agents” (Pfizer Inc., priority 1979, dated 1981).

Key:
gastric acid secretion = assay: Inhibition of pentagastrin-induced gastric acid secretion in fasted Heidenhain pouch dogs; assay type: in vivo; details: intravenous; for inhibition in vivo at 1 mg/kg / inhibition in vivo at 5 mg/kg / inhibition in vivo at 10 mg/kg: Canis lupus familiaris, 1.5 h, 90 minutes after start of pentagastrin infusion, lowest acid output after drug vs mean acid output immediately prior, read-out: Acid Antisecretory Activity (% Inhibition)
Procedure: The activity of the compounds of the present invention, as anti-ulcer agents, is determined by their ability to pass at least one of the following two standard biological and/or pharmacological tests, viz., (1) measuring their ability to antagonise those particular actions of histamine which are not blocked by an antihistamine such as mepyramine, i.e., a measure of their ability to block certain histamine H2 -receptor sites; and (2) measuring their ability to inhibit gastric acid secretion in the stomachs of Heidenhain pouch dogs that had previously been treated with pentagastrin in order to stimulate the secretion of said acid (in their stomachs) for these particular purposes.
The following 3-amino-5-(4-pyridyl)-1,2,4-triazole final products of Examples I-V, VII-XII, XIV-XVI, XVIII-XX, XXII-XXIII, XXV-XXVI, XXVIII and XXXII, respectively, were tested for antiulcer activity in terms of their ability to inhibit gastric acid secretion in groups of fasted Heidenhain pouch dogs. No anesthetic was used in this study. The animals were first administered pentagastrin in order to stimulate acid output in their stomachs by the continuous infusion of said drug into a superified leg vein at doses earlier determined to stimulate near maximal acid output from the gastric pouch. Gastric juice was then collected at 30-minute intervals following the start of a pentagastrin infusion amd measured to the nearest one-tenth of a […] (0.1 ml.). Ten collections were taken for each dog during an experiment. Acid concentration was then determined by titrating 1.0 ml. of gastric juice to a pH value of pH 7.4 with 0.1 N aqueous sodium hydroxide, using an Autoburette and a glass electrode pH meter (Radiometer) for these purposes. The animals were then administered the test compounds at 10, 5.0 and 1.0 mg./kg., respectively, or the control vehicle alone, via the intravenous route of administration,at 90 minutes following the start of the pentagastrin infusion. Gastric antisecretory effects were thereafter calculated by comparing the lowest acid output after drug administration with the mean acid output immediately prior to same and the results obtained in this manner are reported in the following table, where the entries given for each individual compound are expressed in terms of percent inhibition (%) at the dose level indicated: […]

[1] = Signs of toxic side effects in Heidenhain pouch dogs after intravenous dosing; assay type: in vivo; details: 1.0 mg./kg. to 10 mg./kg.
Text: As previously indicated, the 3-amino-5-(4-pyridyl)-1,2,4-triazole compounds of this invention are all readily adapted to therapeutic use as histamine H2 -receptor inhibitors for the control of peptic ulcers, especially in view of their ability to inhibit the secretion of gastric acid in the body to a statistically significant degree. […] The other compounds of this invention also cause similar results. Furthermore, all the herein described compounds of this invention can be administered orally, for the present purposes at hand, without causing any significant untoward pharmacological side reactions to occur in the subject to whom they are so administered. In general, these compounds are ordinarily administered at dosage levels ranging from about 0.5 mg. to about 50 mg. per kg. of body weight per day, although variations will necessarily occur depending upon the condition and individual response of the subject being treated and the particular type of pharmaceutical formulation chosen.

CCCNc1cc(-c2nc(N)n[nH]2)ccn1 [Example I, 3-amino-5-{2-[N-mono(n-propyl)amino]-4-pyridyl}-1,2,4-triazole]
inhibition in vivo at 1 mg/kg (gastric acid secretion): 33% | inhibition in vivo at 5 mg/kg (gastric acid secretion): 64%

CCCCCCNc1cc(-c2nc(N)n[nH]2)ccn1 [Example II, 3-amino-5-{2-[N-mono(n-hexyl)amino]-4-pyridyl}-1,2,4-triazole]
inhibition in vivo at 1 mg/kg (gastric acid secretion): 0% | inhibition in vivo at 10 mg/kg (gastric acid secretion): 40%

CCCCCCCCCCNc1cc(-c2nc(N)n[nH]2)ccn1 [Example III, 3-amino-5-{2-[N-mono(n-decyl)amino]-4-pyridyl}-1,2,4-triazole]
inhibition in vivo at 10 mg/kg (gastric acid secretion): 14%

C=CCNc1cc(-c2nc(N)n[nH]2)ccn1 [Example IV]
inhibition in vivo at 1 mg/kg (gastric acid secretion): 31%

CCN(C)c1cc(-c2nc(N)n[nH]2)ccn1 [Example IX, 3-amino-5-[2-(N-methyl-N-ethylamino)-4-pyridyl]-1,2,4-triazole]
inhibition in vivo at 1 mg/kg (gastric acid secretion): 53%

Nc1n[nH]c(-c2ccnc(NCCO)c2)n1 [Example V, 3-amino-5-{2-[N-mono(β-hydroxyethyl)amino]-4-pyridyl}-1,a,4-triazole]
inhibition in vivo at 1 mg/kg (gastric acid secretion): 23% | inhibition in vivo at 10 mg/kg (gastric acid secretion): 34%

COCCNc1cc(-c2nc(N)n[nH]2)ccn1 [Example VII, 3-amino-5-{2-[N-mono(β-methoxyethyl)amino]-4-pyridyl}-1,2,4-triazole]
inhibition in vivo at 1 mg/kg (gastric acid secretion): 11%

CN(C)c1cc(-c2nc(N)n[nH]2)ccn1 [Example VIII, 3-amino-5-[2-(N,N-dimethylamino)-4-pyridyl]-1,2,4-triazole]
inhibition in vivo at 1 mg/kg (gastric acid secretion): 48% | inhibition in vivo at 5 mg/kg (gastric acid secretion): 80% | inhibition in vivo at 10 mg/kg (gastric acid secretion): 96%

CCN(CC)c1cc(-c2nc(N)n[nH]2)ccn1 [Example X, 3-amino-5-[2-(N,N-diethylamino)-4-pyridyl]-1,2,4-triazole]
inhibition in vivo at 5 mg/kg (gastric acid secretion): 68%

CCNc1cc(-c2nc(NCC)n[nH]2)ccn1 [Example XI, 3-(monoethylamino)-5-[2-(N-monoethylamino)-4-pyridyl]-1,2,4-triazole]
inhibition in vivo at 1 mg/kg (gastric acid secretion): 38%

Nc1n[nH]c(-c2ccnc(NCCc3ccccc3)c2)n1 [Example XII, 3-amino-5-{2-[N-mono(β-phenylethyl)amino]-4-pyridyl}-1,2,4-triazole]
inhibition in vivo at 1 mg/kg (gastric acid secretion): 18% | inhibition in vivo at 10 mg/kg (gastric acid secretion): 50%

Nc1n[nH]c(-c2ccnc(NCc3ccccc3)c2)n1 [Example XIV, 3-amino-5-[2-(N-monobenzylamino)-4-pyridyl]-1,2,4-triazole]
inhibition in vivo at 1 mg/kg (gastric acid secretion): 21% | inhibition in vivo at 10 mg/kg (gastric acid secretion): 72%

CNc1cc(-c2nc(N)n[nH]2)ccn1 [Example XIX, 3-amino-5-[2-(N-monomethylamino)-4-pyridyl]-1,2,4-triazole]
inhibition in vivo at 1 mg/kg (gastric acid secretion): 50%

Nc1n[nH]c(-c2ccnc(NCc3ccc(Cl)cc3)c2)n1 [Example XV, 3-amino-5-{2-[N-mono(p-chlorobenzyl)amino]-4-pyridyl}-1,2,4-triazole]
inhibition in vivo at 1 mg/kg (gastric acid secretion): 21% | inhibition in vivo at 10 mg/kg (gastric acid secretion): 62%

Nc1cc(-c2nc(N)n[nH]2)ccn1 [Example XVIII, 3-amino-5-(2-aminopyridyl)-1,2,4-triazole monohydrate]
inhibition in vivo at 1 mg/kg (gastric acid secretion): 30% | inhibition in vivo at 5 mg/kg (gastric acid secretion): 86% | inhibition in vivo at 10 mg/kg (gastric acid secretion): 94%

Cc1ccc(CNc2cc(-c3nc(N)n[nH]3)ccn2)cc1 [Example XVI]
inhibition in vivo at 5 mg/kg (gastric acid secretion): 33%

CCNc1cc(-c2nc(N)n[nH]2)ccn1 [Example XX, 3-amino-5-[2-(N-monoethylamino)-4-pyridyl]-1,2,4-triazole]
inhibition in vivo at 1 mg/kg (gastric acid secretion): 51% | inhibition in vivo at 5 mg/kg (gastric acid secretion): 89% | inhibition in vivo at 10 mg/kg (gastric acid secretion): 93% | inhibit the pentagastrin-induced secretion of gastric acid (in words) (gastric acid secretion; 1.0 mg./kg. to 10 mg./kg., Heidenhain pouch dogs): consistently inhibit the pentagastrin-induced secretion of gastric acid from stomachs of Heidenhain pouch dogs to a significantly high degree | signs of toxic side effects [1]: without showing any substantial signs of toxic side effects

CCCCNc1cc(-c2nc(N)n[nH]2)ccn1 [Example XXII, 3-amino-5-{2-[N-mono(n-butyl)amino]-4-pyridyl}-1,2,4-triazole]
inhibition in vivo at 1 mg/kg (gastric acid secretion): 29%

CC(C)Nc1cc(-c2nc(N)n[nH]2)ccn1 [Example XXIII, 3-amino-5-[2-(N-monoisopropylamino)-4-pyridyl]-1,2,4-triazole]
inhibition in vivo at 1 mg/kg (gastric acid secretion): 35% | inhibition in vivo at 5 mg/kg (gastric acid secretion): 52%

Nc1n[nH]c(-c2ccnc(NCC(F)(F)F)c2)n1 [Example XXV, 3-amino-5-{2-[N-mono(2,2,2-trifluoroethyl)amino]-4-pyridyl}-1,2,4-triazole]
inhibition in vivo at 1 mg/kg (gastric acid secretion): 10%

CCNc1cc(-c2nc(NC)n[nH]2)ccn1 [Example XXVI, 3-(N-monomethylamino)-5-[2-(N-monoethylamino)-4-pyridyl]-1,2,4-triazole]
inhibition in vivo at 1 mg/kg (gastric acid secretion): 32% | inhibition in vivo at 5 mg/kg (gastric acid secretion): 64%

Cc1ccc(CNc2cc(-c3nc(N)n[nH]3)ccn2)cc1C [Example XXVIII, 3-amino-5-{2-[N-mono(3',4'-dimethylbenzyl)amino]-4-pyridyl}-1,2,4-triazole]
inhibition in vivo at 5 mg/kg (gastric acid secretion): 49%

CN(Cc1ccccc1)c1cc(-c2nc(N)n[nH]2)ccn1 [Example XXXII, 3-amino-5-[2-(N-methyl-N-benzylamino)-4-pyridyl]-1,2,4-triazole]
inhibition in vivo at 10 mg/kg (gastric acid secretion): 25%
